Results reported in patent US20040014028A1, “Method for determination of protective epitopes for vaccination, diagnosis and vaccine quality control” (Wolf Biotech, priority 2002, published 2004).

Key:
swine neutralizing serum = test: Synthetic peptide ELISA with swine anti-PRRSV neutralizing serum; assay type: binding; conditions: NS from different immunized swine
Protocol: (§1) In FIG. 6 there is show the reactivity of Monoclonal antibody ISU25-C1 and swine anti-PRRSV hyperimmune sera to synthetic peptides bound to MBS coated ELISA plates. Results are expressed as corrected Optical density (OD) at 405 nm (OD405): (OD tested peptide-OD irrelevant peptide P7, Table 1). SN titer was determined against PRRSV Iowa strain. ELISA s/p ratio was determined as the difference in the optical density (OD) of the test serum between viral and control antigens divided by the difference in the OD of the positive reference between viral and control antigens. Serums 3, 5, 6 y 8 are from PRRSV-hyperimmunized pigs, serum 19 is a negative control, ISU 25-C1 and ISU 19A1 (Yang, L et al, Arch. Virol. 145:1599-1619, 2000) are anti-PRRSV neutralizing and non-neutralizing monoclonal antibodies respectively.
(§2) Several deduced peptides and variations of them were synthesized using solid phase technology and Fmoc standart chemistry. To perform ELISAs with these synthetic peptides, they were diluted in PBS pH 6.8 to a final concentration of 50 μg/ml, and then were used to coat Reacti-Bind Maleimide-Activated Plates (Pierce, Rockford, Ill.) for 5 hours at room temperature. Remaining maleimide groups were blocked by a 1-hour incubation with cysteine-HCl 10 μg/ml diluted in PBS pH 6.8. An extra blocking step was carried out by incubating the plate with PBS containing 10% milk. Sera or affinity-purified antibodies were added in different dilutions and incubated for 1 hour at room temperature.

[1] = test system: anti-peptide S2-affinity purified antibodies; test: Inhibition by synthetic peptides of binding of anti-peptide S2-affinity purified antibodies to phage clone S2-4; set-up: species or system swine; conditions: serial five-fold dilutions of peptide
Protocol: In FIG. 8, there is shown the inhibition by synthetic peptides of the binding of anti-peptide S2-affinity purified antibodies to phage clone S2-4. Serial five-fold dilutions of synthetic peptides S2 (filled squares), S3 (X) or irrelevant peptide P7(filled circle) were used. Results are expressed as the percentage of the signal obtained with anti-peptide S2 affinity purified antibodies in wells to which no peptides were added. Values are the average of four readings.
This stresses the importance of motif SHF in the composition of epitope B. Anti-peptide S2 affinity-purified antibodies, recognized to a similar extent peptides S2 (OD: 0.336) and S6 (OD: 0.369), confirming that residues H^38, Q^40, I^42, Y^43 and N^44 constitute the core of epitope B.

[2] = test system: anti-peptide S2-affinity purified antibodies; test: Synthetic peptide ELISA on maleimide-activated plates with anti-peptide S2-affinity purified antibodies; assay type: binding, swine; conditions: for recognition by S2 affinity purified antibodies in ELISA: synthetic peptides bound to MBS coated plates; for ELISA signal (OD) with anti-peptide S2 affinity-purified antibodies: synthetic peptide bound to ELISA plate
Protocol: (§3) In FIG. 7, there is shown the reactivity of anti peptides-affinity purified antibodies to synthetic peptides bound to MBS coated ELISA plates. Results are expressed as corrected OD405 (OD tested peptide-OD irrelevant peptide P7, Table 1).
as §2
(§4) Based on the previous results, anti-epitope A and anti-epitope B antibodies were affinity purified from a pool of precipitated antibodies with a SN titer of 1:512 using Keyhole-limpet hemocianine (KLH)-conjugated peptides coupled to CNBr-activated Sepharose as ligand as it is known in the art. R4N/R1N-affinity purified antibodies recognized peptides R4N, peptide R1N and peptide S1. All these peptides contain an (A/V)LVN motif.

[3] = test system: Monoclonal antibody ISU25-C1; test: Competition ELISA: inhibition by synthetic peptides of binding of monoclonal antibody ISU25-C1 to PRRSV-coated strips; set-up: species or system mouse; conditions: peptide concentration 333 μM
From the text: In FIG. 5 there is shown the inhibition by synthetic peptides of the binding of monoclonal antibody ISU25C1 (solid lines) or monoclonal antibody ISU19-A1 (dofted lines) to PRRSV in ELISA. Serial five-fold dilutions of synthetic peptide S4 were used (filled squares). Unrelated peptide P7 was used with monoclonal antibody ISU25C1 as a negative control (filled circles). Results are expressed as the percentage of the anti PRRSV-specific signal obtained with each monoclonal antibody in wells to which no peptides were added. Values are the average of four readings.
To perform competition assays, several dilutions of peptide S4 and irrelevant peptide […] (shown in Table 1) were incubated with Monoclonal antibody ISU25-C1 for 1.5 hours at room temperature. Then, the antibody-peptide mix was added to PRRSV-coated ELISA strips (IDDEX Lab., Inc; Westbrook, Me.) for 45 minutes.

[4] = test system: Monoclonal antibody ISU25-C1; test: Synthetic peptide ELISA with monoclonal antibody ISU25-C1; assay type: binding, mouse
Protocol: as §1
as §2, with “Sera or affinity-purified antibodies were added in different dilutions and incubated for 1 hour at room temperature.” left out

[5] = test system: R4N/R1N-affinity purified antibodies; test: Synthetic peptide ELISA on maleimide-activated plates with R4N/R1N-affinity purified antibodies; assay type: binding, swine; conditions: synthetic peptides bound to MBS coated plates
Protocol: as §3, §2, §4

[6] = test system: Monoclonal antibody ISU25-C1; test: Phage-ELISA with monoclonal antibody ISU25-C1; assay type: binding, mouse
Protocol: (§5) In FIG. 4 there is shown the reactivity of swine sera and monoclonal antibodies to selected cloned phages. Results are expressed as corrected OD405 (OD of selected phage-OD unselected phage library NS: serum from pig #6 with a neutralizing titer >64 and ELISA s/p ratio 1.053 NNS: serum from pig #5 with a neutralizing titer <4 and ELISA s/p ratio 0.652.
(§6) To detect peptides on the coat of phages, individual clones shown in FIG. 3 were propagated for 4.5 hours in E. coli ER2738 and then they were purified by two precipitations with PEG 8000. […] phages were added to each well of a Immulon 2HB (Dynex Technologies Inc, Chantilly, Va.) in sodium bicarbonate 0.1 M pH 8.6, and incubated for 16 hours at room temperature in a humidified chamber. Plates were blocked with PBS containing 10% milk for three hours at room temperature. Swine sera or Monoclonal antibody from the tissue culture supernatant were preadsorbed in PBS containing 10% non-fat milk added with 100 μg/ml of E. coli proteins. In addition, 10^10 pfu/ml of non-selected phages were added to the antibodies to reduce background caused by anti M-13 activity found in animal sera. The plates were washed six times with PBS 0.05% Tween-20 and the peroxidase-conjugated secondary antibody (1:500) was added for 30 minutes at 37 C. […] The results were read in a spectrophotometer at 405 nm.

[7] = test system: sera from hyperimmunized pigs; test: Phage-ELISA with sequential sera from hyperimmunized pigs; assay type: binding, swine; conditions: early sera (20 days pi), ELISA positive, negative or low SN titer
Protocol: Epitopes A and B are represented by phage clones 01 and S2-4 (FIG. 1), respectively. ELISA s/p ratio was determined as the difference in the optical density (OD) of the test serum between viral and control antigens divided by the difference in the OD of the positive reference between viral and control antigens.
as §6, with “proteins.” for “proteins. In addition, 10^10 pfu/ml of non-selected phages were added to the antibodies to reduce background caused by anti M-13 activity found in animal sera. The plates were washed six times with PBS 0.05% Tween-20 and the peroxidase-conjugated secondary antibody (1:500) was added for 30 minutes at 37 C.”
Anti-PRRSV neutralizing antibodies appear late after infection and they are mainly directed against GP5. To determine a correlation between time post-infection and epitope recognition, we evaluated sera from several pigs at two different times of the hyperimmunization protocol as shown in FIG. 9.

swine anti-PRRSV NS = test: Phage-ELISA with swine anti-PRRSV neutralizing serum; assay type: binding
Protocol: as §5, §6

swine anti-PRRSV NNS = test: Phage-ELISA with swine anti-PRRSV non-neutralizing serum; assay type: binding
Protocol: as §5, §6

| Sequence | recognition by swine neutralizing serum in peptide ELISA (swine neutralizing serum) | recognition by S2 affinity purified antibodies in ELISA [2] | recognition by R4N/R1N-affinity purified antibodies in ELISA [5] | further results |
| --- | --- | --- | --- | --- |
| SGSGANNSSSSGSGSIYNC [peptide S3, peptide S2 with motif SHF replaced by GSG] | completely abrogated | did not recognize |  | inhibition of the binding of anti-peptide S2-affinity purified antibodies to clone S2-4 [1]: inhibited the binding |
| SHITSYPAYFWC [peptide S4, mimotope for ISU25-C1] | do not recognize |  |  | inhibition of the binding of Monoclonal antibody ISU25-C1 to PRRSV [3]: 60%; recognition by Monoclonal antibody ISU25-C1 in peptide ELISA [4]: recognized |
| VLVNANNSSSSHFQSIYNC [peptide S1, residues 27 to 43 of GP5 of IA 97-7895, contains motifs VLVN and HXXXIYN] | strongly recognized | recognized | recognized |  |
| SGSGSNNSSSSAC [peptide ΔR1N, R1N with residues 27-30 VLVN changed to irrelevant motif SGSG] | abrogated |  | did not recognize |  |
| SGSGANNSSSSHFQSIYNC [peptide S2, GP5 residues 27-44 with residues 27-30 changed to SGSG] | still recognized | recognized | did not recognize | recognition by Monoclonal antibody ISU25-C1 in peptide ELISA [4]: does not recognize; inhibition of the binding of anti-peptide S2-affinity purified antibodies to clone S2-4 [1]: inhibited to a greater extent than peptide S3; ELISA signal (OD) with anti-peptide S2 affinity-purified antibodies [2]: 0.336 OD |
| SGSGANSNSSSHLQLIYNLTLCELC [S6] |  |  |  | ELISA signal (OD) with anti-peptide S2 affinity-purified antibodies [2]: 0.369 OD |
| ALVNIPISNNLAC [peptide R4N] | recognized | did not recognize | recognized |  |
| YKNTHLDLIYNA [phage clone S2-4] |  |  |  | recognition of phage-displayed peptide by Monoclonal antibody ISU25-C1 [6]: not by swine non-neutralizing serum or by monoclonal antibody ISU25-C1; reactivity of sera obtained shortly after the beginning of the immunization [7]: very weakly; recognition of phage-displayed peptide by swine anti-PRRSV neutralizing serum (NS) (swine anti-PRRSV NS): strongly recognized; recognition of phage-displayed peptide by swine anti-PRRSV non-neutralizing serum (NNS) (swine anti-PRRSV NNS): not by swine non-neutralizing serum |
| VLVNSNNSSSSAC [peptide R1N, aminoacids 27-38 of the GP5 of PRRSV IA 97-7895 isolate] | recognized | did not recognize | recognized |  |
